PubChem BioAssay (NCI)
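GI50: concentration for 50% inhibition of growth. TGI: total growth inhibition.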

Assays:
Assay in all cases: DTP human tumour cell line panel, 384-well format
K-562 leukemia = system: K-562 leukemia
KM12 colon = system: KM12 colon
SNB-19 CNS = system: SNB-19 CNS
TK-10 renal = system: TK-10 renal
M14 melanoma = system: M14 melanoma
NCI-H322M lung = system: NCI-H322M lung
OVCAR-4 ovarian = system: OVCAR-4 ovarian
OVCAR-5 ovarian = system: OVCAR-5 ovarian
HCC-2998 colon = system: HCC-2998 colon
UO-31 renal = system: UO-31 renal
NCI-H226 lung = system: NCI-H226 lung
SF-539 CNS = system: SF-539 CNS
CCRF-CEM leukemia = system: CCRF-CEM leukemia
SK-MEL-5 melanoma = system: SK-MEL-5 melanoma
NCI-H23 lung = system: NCI-H23 lung
RXF 393 renal = system: RXF 393 renal
UACC-257 melanoma = system: UACC-257 melanoma
IGROV1 ovarian = system: IGROV1 ovarian
NCI/ADR-RES ovarian = system: NCI/ADR-RES ovarian
PC-3 prostate = system: PC-3 prostate
MOLT-4 leukemia = system: MOLT-4 leukemia
786-0 renal = system: 786-0 renal
EKVX NSCLC = system: EKVX NSCLC
NCI-H522 lung = system: NCI-H522 lung
UACC-62 melanoma = system: UACC-62 melanoma
COLO 205 colon = system: COLO 205 colon
SK-MEL-2 melanoma = system: SK-MEL-2 melanoma
SF-268 CNS = system: SF-268 CNS
CAKI-1 renal = system: CAKI-1 renal
ACHN renal = system: ACHN renal
SW-620 colon = system: SW-620 colon
BT-549 breast = system: BT-549 breast
SK-OV-3 ovarian = system: SK-OV-3 ovarian
SR leukemia = system: SR leukemia
HOP-92 NSCLC = system: HOP-92 NSCLC
SN12C renal = system: SN12C renal
MDA-MB-231 breast = system: MDA-MB-231 breast
MALME-3M melanoma = system: MALME-3M melanoma
A549 NSCLC = system: A549 NSCLC
T-47D breast = system: T-47D breast
MDA-MB-435 melanoma = system: MDA-MB-435 melanoma
HL-60(TB) leukemia = system: HL-60(TB) leukemia
RPMI-8226 leukemia = system: RPMI-8226 leukemia
SK-MEL-28 melanoma = system: SK-MEL-28 melanoma
HT29 colon = system: HT29 colon
HCT-116 colon = system: HCT-116 colon
MCF7 breast = system: MCF7 breast
SNB-75 CNS = system: SNB-75 CNS
A498 renal = system: A498 renal
NCI-H460 NSCLC = system: NCI-H460 NSCLC
LOX IMVI melanoma = system: LOX IMVI melanoma
MDA-MB-468 breast = system: MDA-MB-468 breast
HCT-15 colon = system: HCT-15 colon
SF-295 CNS = system: SF-295 CNS
OVCAR-3 ovarian = system: OVCAR-3 ovarian
HOP-62 NSCLC = system: HOP-62 NSCLC
U251 glioblastoma = system: U251 glioblastoma
OVCAR-8 ovarian = system: OVCAR-8 ovarian
DU-145 prostate = system: DU-145 prostate

For `CC(C)Oc1ccc(-c2nn([C@@H](C)c3oc4ccc(F)cc4c(=O)c3-c3cccc(F)c3)c3ncnc(N)c23)cc1F`, the GI50 (K-562 leukemia) was 5.18 µM, the TGI (K-562 leukemia) was greater than 100 µM and the GI50 (KM12 colon) was greater than 100 µM. For the same compound, the TGI (KM12 colon) was greater than 100 µM, the GI50 (SNB-19 CNS) was greater than 100 µM and the TGI (SNB-19 CNS) was greater than 100 µM. It also gave a GI50 (TK-10 renal) greater than 100 µM, a TGI (TK-10 renal) greater than 100 µM and a GI50 (M14 melanoma) greater than 100 µM. For the same compound, the TGI (M14 melanoma) was greater than 100 µM, the GI50 (NCI-H322M lung) was greater than 100 µM and the TGI (NCI-H322M lung) was greater than 100 µM. For the same compound, the GI50 (OVCAR-4 ovarian) was 6.49 µM, the TGI (OVCAR-4 ovarian) was greater than 100 µM and the GI50 (OVCAR-5 ovarian) was greater than 100 µM. The TGI (OVCAR-5 ovarian) was greater than 100 µM, the GI50 (HCC-2998 colon) was greater than 100 µM and the TGI (HCC-2998 colon) was greater than 100 µM. It also gave a GI50 (UO-31 renal) of 1.94 µM, a TGI (UO-31 renal) of 7.54 µM and a GI50 (NCI-H226 lung) of 51.5 µM. The TGI (NCI-H226 lung) was greater than 100 µM, the GI50 (SF-539 CNS) was 20.3 µM and the TGI (SF-539 CNS) was greater than 100 µM. For the same compound, the GI50 (CCRF-CEM leukemia) was 3.62 µM, the TGI (CCRF-CEM leukemia) was greater than 83.9 µM and the GI50 (SK-MEL-5 melanoma) was greater than 29.3 µM. For the same compound, the TGI (SK-MEL-5 melanoma) was greater than 100 µM, the GI50 (NCI-H23 lung) was 38.5 µM and the TGI (NCI-H23 lung) was greater than 100 µM. For the same compound, the GI50 (RXF 393 renal) was 2.45 µM, the TGI (RXF 393 renal) was 11.5 µM and the GI50 (UACC-257 melanoma) was greater than 100 µM. The TGI (UACC-257 melanoma) was greater than 100 µM, the GI50 (IGROV1 ovarian) was greater than 100 µM and the TGI (IGROV1 ovarian) was greater than 100 µM. The GI50 (NCI/ADR-RES ovarian) was 19.5 µM, the TGI (NCI/ADR-RES ovarian) was greater than 100 µM and the GI50 (PC-3 prostate) was 7.27 µM. It also gave a TGI (PC-3 prostate) greater than 100 µM, a GI50 (MOLT-4 leukemia) of 3.51 µM and a TGI (MOLT-4 leukemia) greater than 100 µM. It also gave a GI50 ([…]-0 renal) of 26.2 µM, a TGI (786-0 renal) greater than 100 µM and a GI50 (EKVX NSCLC) greater than 100 µM. For the same compound, the TGI (EKVX NSCLC) was greater than 100 µM, the GI50 (NCI-H522 lung) was 12.9 µM and the TGI (NCI-H522 lung) was greater than 100 µM. It also gave a GI50 (UACC-62 melanoma) greater than 100 µM, a TGI (UACC-62 melanoma) greater than 100 µM and a GI50 (COLO 205 colon) greater than 100 µM. It also gave a TGI (COLO 205 colon) greater than 100 µM, a GI50 (SK-MEL-2 melanoma) greater than 100 µM and a TGI (SK-MEL-2 melanoma) greater than 100 µM. The GI50 (SF-268 CNS) was greater than 100 µM, the TGI (SF-268 CNS) was greater than 100 µM and the GI50 (CAKI-1 renal) was greater than 100 µM. It also gave a TGI (CAKI-1 renal) greater than 100 µM, a GI50 (ACHN renal) greater than 86.8 µM and a TGI (ACHN renal) greater than 100 µM. The GI50 (SW-620 colon) was greater than 90.1 µM, the TGI (SW-620 colon) was greater than 100 µM and the GI50 (BT-549 breast) was 10.3 µM. The TGI (BT-549 breast) was greater than 100 µM, the GI50 (SK-OV-3 ovarian) was greater than 100 µM and the TGI (SK-OV-3 ovarian) was greater than 100 µM. The GI50 (SR leukemia) was 2.84 µM, the TGI (SR leukemia) was 14.9 µM and the GI50 (HOP-92 NSCLC) was 8.09 µM. For the same compound, the TGI (HOP-92 NSCLC) was greater than 80.9 µM, the GI50 (SN12C renal) was greater than 100 µM and the TGI (SN12C renal) was greater than 100 µM. For the same compound, the GI50 (MDA-MB-231 breast) was 9.94 µM, the TGI (MDA-MB-231 breast) was greater than 100 µM and the GI50 (MALME-3M melanoma) was greater than 100 µM. It also gave a TGI (MALME-3M melanoma) greater than 100 µM, a GI50 (A549 NSCLC) of 11.1 µM and a TGI (A549 NSCLC) greater than 100 µM. The GI50 (T-47D breast) was 6.03 µM, the TGI (T-47D breast) was greater than 100 µM and the GI50 (MDA-MB-435 melanoma) was greater than 100 µM. The TGI (MDA-MB-435 melanoma) was greater than 100 µM, the GI50 (HL-60(TB) leukemia) was 5.31 µM and the TGI (HL-60(TB) leukemia) was greater than 36 µM. For the same compound, the GI50 (RPMI-8226 leukemia) was 3.34 µM, the TGI (RPMI-8226 leukemia) was 9.04 µM and the GI50 (SK-MEL-28 melanoma) was greater than 100 µM. It also gave a TGI (SK-MEL-28 melanoma) greater than 100 µM, a GI50 (HT29 colon) greater than 100 µM and a TGI (HT29 colon) greater than 100 µM. For the same compound, the GI50 (HCT-116 colon) was 13.9 µM, the TGI (HCT-116 colon) was greater than 100 µM and the GI50 (MCF7 breast) was 9.51 µM. It also gave a TGI (MCF7 breast) greater than 100 µM, a GI50 (SNB-75 CNS) of 33.5 µM and a TGI (SNB-75 CNS) greater than 100 µM. The GI50 (A498 renal) was 8.65 µM, the TGI (A498 renal) was greater than 100 µM and the GI50 (NCI-H460 NSCLC) was 10.5 µM. The TGI (NCI-H460 NSCLC) was greater than 100 µM, the GI50 (LOX IMVI melanoma) was greater than 100 µM and the TGI (LOX IMVI melanoma) was greater than 100 µM. For the same compound, the GI50 (MDA-MB-468 breast) was 5.71 µM, the TGI (MDA-MB-468 breast) was greater than 83.7 µM and the GI50 (HCT-15 colon) was 32.5 µM. For the same compound, the TGI (HCT-15 colon) was greater than 100 µM, the GI50 (SF-295 CNS) was greater than 100 µM and the TGI (SF-295 CNS) was greater than 100 µM. It also gave a GI50 (OVCAR-3 ovarian) of 12.1 µM, a TGI (OVCAR-3 ovarian) greater than 100 µM and a GI50 (HOP-62 NSCLC) greater than 100 µM. For the same compound, the TGI (HOP-62 NSCLC) was greater than 100 µM, the GI50 (U251 glioblastoma) was 88.8 µM and the TGI (U251 glioblastoma) was greater than 100 µM. The GI50 (OVCAR-8 ovarian) was 11.8 µM, the TGI (OVCAR-8 ovarian) was greater than 100 µM and the GI50 (DU-145 prostate) was greater than 100 µM. It also gave a TGI (DU-145 prostate) greater than 100 µM.
